Data as given in US20260062422A1 (Halda Therapeutics OpCo, Inc., priority 2022, published 2026).

Experiments:
[1] = test system: T-Rex 293 cell line SC cells lacking increased expression of progesterone receptor isoform B protein; assay: Cellular growth inhibition, T-Rex 293 SC cells without doxycycline, Example 45; format: cell-based; conditions: T-Rex 293 SC cells not exposed to doxycycline, 72 hours treatment, CellTiter-Glo 2.0
Method: The following types of cells were prepared for this experiment: (i) a T-Rex 293 cell line having increased expression of progesterone receptor isoform B protein due to exposure to doxycycline and (ii) a T-Rex 293 cell line lacking increased expression of progesterone receptor isoform B protein. Ability of the test compounds to inhibit proliferation of the foregoing cell types was evaluated according to the procedures set forth below.
The doxycycline-inducible progesterone receptor isoform B protein expressing cell line was established using the following protocol: T-Rex 293 cells were purchased from Invitrogen (Cat #R71007) and transfected using Lipofectamine 2000 with the wild-type progesterone receptor B protein sequence cloned into the pcDNA4/TO vector. Transfected cells were selected using 400 μg/mL Zeocin (Invitrogen Cat #R25001). Following selection, single clones were raised and maintained in Dulbecco's Modified Eagle Medium (DMEM) supplemented with 10% w/w Tetracycline-free fetal bovine serum (FBS) and 250 μg/mL Zeocin. Clones were analyzed for expression of progesterone receptor isoform B protein in the presence and absence of 10 ng/mL doxycycline (Sigma Cat #D9891), and a single doxycycline-inducible clone (hereinafter “SC”) was selected for use in downstream assays.
The SC cells were seeded on poly-D-lysine coated, black clear-bottom 384-well plates at 2500/well, in 25 μL Phenol Red Free Dulbecco's Modified Eagle Medium (DMEM) supplemented with 10% w/w charcoal-dextran treated fetal bovine serum (FBS) and 1% w/w pen-strep, with or without 10 ng/mL doxycycline. Pen-Strep is a commercially available mixture of penicillin G and streptomycin, which is used in mammalian cell culture media to prevent bacterial contamination. Phenol Red Free Dulbecco's Modified Eagle Medium (DMEM) supplemented with 10% w/w charcoal-dextran treated fetal bovine serum (FBS) and 1% w/w pen-strep, with or without 10 ng/mL doxycycline is herein referred to as Treatment Medium. Following seeding of cells in the plates, the plates were spun at 300×g for 30 seconds, then equilibrated to room temperature for 30 minutes, and then deposited in a humidified tissue culture incubator maintained at 37° C. with 5% CO2.
At 24 hours after seeding of the cells, dilutions of test compound were prepared in DMSO and dissolved in Treatment Medium, to achieve a final DMSO concentration of 0.5% w/w, thereby providing the Test Compound Solution. A 25 μL aliquot of the Test Compound Solution was added to cells in the well plates. An equal volume of a solution containing DMSO and Treatment Medium was used as a negative control. Following treatment of cells with Test Compound Solution or said equal volume of a solution containing DMSO and Treatment Medium, the plates were spun at 300×g for 30 seconds, and then left in an incubator for 72 hours.
At the end of the treatment duration, cell viability was quantified with CellTiter-Glo 2.0 reagent (Promega Cat #G9243). For this purpose, plates were equilibrated to room temperature for 30 minutes, and then 25 μL of CellTiter-Glo 2.0 reagent was added to cells in the plate wells. Plates were then agitated on a shaker for two minutes at 500 rpm and subsequently incubated at room temperature for 10 minutes. Following incubation, the plates were spun at 3000×g for 30 seconds, then sealed with an optical adhesive cover, and luminescence readings were measured with an EnVision Plate Reader (Perkin Elmer).
Data was normalized using zero luminescence for baseline. A four-parameter non-linear regression curve fit was applied to dose-response data in GraphPad Prism data analysis software to determine the half-maximal growth inhibitory concentration (GI50) for each test compound.

VCaP cells = assay: Cellular growth inhibition assay for VCaP cells, CellTiter-Glo; format: cell-based, human; conditions: 72 hours treatment, CellTiter-Glo 2.0
Procedure, shortened: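 GI50 values come from four-parameter curve fits of luminescence data normalized to a zero baseline. Compound, in medium with 0.5% DMSO, was added one day after plating and left for 72 h before CellTiter-Glo 2.0 addition.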

GI50 (VCaP cells; Homo sapiens, VCaP, 72 h)	SMILES	GI50 [1]	GI50 (VCaP cells)
< 500 nM	Cc1sc2c(c1C)C(c1ccc(Cl)cc1)=N[C@@H](CC(=O)NCCCN1CCN(CCCN(C)c3ncc(C(=O)N[C@H]4C(C)(C)[C@H](Oc5ccc(C#N)c(Cl)c5)C4(C)C)cn3)CC1)c1nnc(C)n1-2 [Compound I-5, N-((1r,3r)-3-(3-chloro-4-cyanophenoxy)-2,2,4,4-tetramethylcyclobutyl)-2-((3-(4-(3-(2-((S)-4-(4-chlorophenyl)-2,3,9-trimethyl-6H-thieno[3,2-f][1,2,4]triazolo[4,3-a][1,4]diazepin-6-yl)acetamido)propyl)piperazin-1-yl)propyl)(methyl)amino)pyrimidine-5-carboxamide]		
> 3000 nM	Cc1sc2c(c1C)C(c1ccc(OCCOC3CCN(c4ncc(C(=O)N[C@H]5C(C)(C)[C@H](Oc6ccc(C#N)c(Cl)c6)C5(C)C)cn4)CC3)cc1)=N[C@@H](CC(=O)O)c1nnc(C)n1-2 [Compound I-38]	> 3000 nM	
> 3000 nM	Cc1sc2c(c1C)C(c1ccc(OCCOCCOC3CCN(c4ncc(C(=O)N[C@H]5C(C)(C)[C@H](Oc6ccc(C#N)c(Cl)c6)C5(C)C)cn4)CC3)cc1)=N[C@@H](CC(=O)O)c1nnc(C)n1-2 [Compound I-39]		
1500 to 3000 nM	Cc1sc2c(c1C)C(c1cccc(OCCOCCOC3CCN(c4ncc(C(=O)N[C@H]5C(C)(C)[C@H](Oc6ccc(C#N)c(Cl)c6)C5(C)C)cn4)CC3)c1)=N[C@@H](CC(=O)O)c1nnc(C)n1-2 [Compound I-42]		
> 3000 nM	Cc1sc2c(c1C)C(c1cccc(OCCOCCOCCOC3CCN(c4ncc(C(=O)N[C@H]5C(C)(C)[C@H](Oc6ccc(C#N)c(Cl)c6)C5(C)C)cn4)CC3)c1)=N[C@@H](CC(=O)O)c1nnc(C)n1-2 [Compound I-43]		
< 500 nM	CCNC(=O)C[C@@H]1N=C(c2ccc(OCCOCCOCCOC3CCN(c4ncc(C(=O)N[C@H]5C(C)(C)[C@H](Oc6ccc(C#N)c(Cl)c6)C5(C)C)cn4)CC3)cc2)c2c(sc(C)c2C)-n2c(C)nnc21 [Compound I-45, N-((1r,3r)-3-(3-chloro-4-cyanophenoxy)-2,2,4,4-tetramethylcyclobutyl)-2-(4-(2-(2-(2-(4-((S)-6-(2-(ethylamino)-2-oxoethyl)-2,3,9-trimethyl-6H-thieno[3,2-f][1,2,4]triazolo[4,3-a][1,4]diazepin-4-yl)phenoxy)ethoxy)ethoxy)ethoxy)piperidin-1-yl)pyrimidine-5-carboxamide]		
500 to 1500 nM	CCNC(=O)C[C@@H]1N=C(c2cccc(OCCOCCOC3CCN(c4ncc(C(=O)N[C@H]5C(C)(C)[C@H](Oc6ccc(C#N)c(Cl)c6)C5(C)C)cn4)CC3)c2)c2c(sc(C)c2C)-n2c(C)nnc21 [Compound I-47, N-((1r,3r)-3-(3-chloro-4-cyanophenoxy)-2,2,4,4-tetramethylcyclobutyl)-2-(4-(2-(2-(3-((S)-6-(2-(ethylamino)-2-oxoethyl)-2,3,9-trimethyl-6H-thieno[3,2-f][1,2,4]triazolo[4,3-a][1,4]diazepin-4-yl)phenoxy)ethoxy)ethoxy)piperidin-1-yl)pyrimidine-5-carboxamide]		
< 500 nM	CCNC(=O)C[C@@H]1N=C(c2cccc(OCCOCCOCCOC3CCN(c4ncc(C(=O)N[C@H]5C(C)(C)[C@H](Oc6ccc(C#N)c(Cl)c6)C5(C)C)cn4)CC3)c2)c2c(sc(C)c2C)-n2c(C)nnc21 [Compound I-48, N-((1r,3r)-3-(3-chloro-4-cyanophenoxy)-2,2,4,4-tetramethylcyclobutyl)-2-(4-(2-(2-(2-(3-((S)-6-(2-(ethylamino)-2-oxoethyl)-2,3,9-trimethyl-6H-thieno[3,2-f][1,2,4]triazolo[4,3-a][1,4]diazepin-4-yl)phenoxy)ethoxy)ethoxy)ethoxy)piperidin-1-yl)pyrimidine-5-carboxamide]		
< 500 nM	CCNC(=O)C[C@@H]1N=C(c2ccc(N3CC(N(C)C4CN(c5ncc(C(=O)N[C@H]6C(C)(C)[C@H](Oc7ccc(C#N)c(Cl)c7)C6(C)C)cn5)C4)C3)cc2)c2c(sc(C)c2C)-n2c(C)nnc21 [Compound I-121]		
> 3000 nM	Cc1sc2c(c1C)C(c1ccc(CC3CC4(CCN(c5ncc(C(=O)N[C@H]6C(C)(C)[C@H](Oc7ccc(C#N)c(Cl)c7)C6(C)C)cn5)CC4)C3)cc1)=N[C@@H](C)c1nnc(C)n1-2 [Compound I-436]		

The remaining lines, values behind:

SMILES	GI50 (VCaP cells; Homo sapiens, VCaP, 72 h)	GI50 [1]	GI50 (VCaP cells)
Cc1sc2c(c1C)C(c1ccc(Cl)cc1)=N[C@@H](CC(=O)NCCOCCOCCOCCOCCOCCOCCN(C)c1ncc(C(=O)N[C@H]3C(C)(C)[C@H](Oc4ccc(C#N)c(Cl)c4)C3(C)C)cn1)c1nnc(C)n1-2 [Compound I-4]	< 500 nM	1500 to 3000 nM	
Cc1sc2c(c1C)C(c1ccc(Cl)cc1)=N[C@H](CC(=O)NCCOCCOCCOCCOCCOC1CCN(c3ncc(C(=O)N[C@H]4C(C)(C)[C@H](Oc5ccc(C#N)c(Cl)c5)C4(C)C)cn3)CC1)c1nnc(C)n1-2 [Compound I-14]	> 3000 nM	1500 to 3000 nM	
Cc1sc2c(c1C)C(c1ccc(Cl)cc1)=N[C@@H](CC(=O)NCCCCCOC1CCN(c3ncc(C(=O)N[C@H]4C(C)(C)[C@H](Oc5ccc(C#N)c(Cl)c5)C4(C)C)cn3)CC1)c1nnc(C)n1-2 [Compound I-22, N-((1r,3r)-3-(3-chloro-4-cyanophenoxy)-2,2,4,4-tetramethylcyclobutyl)-2-(4-((5-(2-((S)-4-(4-chlorophenyl)-2,3,9-trimethyl-6H-thieno[3,2-A][1,2,4]triazolo[4,3-a][1,4]diazepin-6-yl)acetamido)pentyl)oxy)piperidin-1-yl)pyrimidine-5-carboxamide]			< 500 nM
Cc1sc2c(c1C)C(c1ccc(OCCOCCOCCOC3CCN(c4ncc(C(=O)N[C@H]5C(C)(C)[C@H](Oc6ccc(C#N)c(Cl)c6)C5(C)C)cn4)CC3)cc1)=N[C@@H](CC(=O)O)c1nnc(C)n1-2 [Compound I-40]	> 3000 nM		
Cc1sc2c(c1C)C(c1cccc(OCCOC3CCN(c4ncc(C(=O)N[C@H]5C(C)(C)[C@H](Oc6ccc(C#N)c(Cl)c6)C5(C)C)cn4)CC3)c1)=N[C@@H](CC(=O)O)c1nnc(C)n1-2 [Compound I-41]	> 3000 nM	> 3000 nM	
CCNC(=O)C[C@@H]1N=C(c2ccc(OCCCN(C)c3ncc(C(=O)N[C@H]4C(C)(C)[C@H](Oc5ccc(C#N)c(Cl)c5)C4(C)C)cn3)cc2)c2c(sc(C)c2C)-n2c(C)nnc21 [Compound I-81]	< 500 nM		
CCNC(=O)C[C@@H]1N=C(c2ccc(OCCCCc3ncc(C(=O)N[C@H]4C(C)(C)[C@H](Oc5ccc(C#N)c(Cl)c5)C4(C)C)cn3)cc2)c2c(sc(C)c2C)-n2c(C)nnc21 [Compound I-86]	500 to 1500 nM		
CCNC(=O)C[C@@H]1N=C(c2ccc(CCCN(C)c3ncc(C(=O)N[C@H]4C(C)(C)[C@H](Oc5ccc(C#N)c(Cl)c5)C4(C)C)cn3)cc2)c2c(sc(C)c2C)-n2c(C)nnc21 [Compound I-104]	> 3000 nM		
CCNC(=O)C[C@@H]1N=C(c2ccc(N3CCC(N(C)C4CN(c5ncc(C(=O)N[C@H]6C(C)(C)[C@H](Oc7ccc(C#N)c(Cl)c7)C6(C)C)cn5)C4)CC3)cc2)c2c(sc(C)c2C)-n2c(C)nnc21 [Compound I-123]	< 500 nM		
CCNC(=O)C[C@@H]1N=C(c2ccc(N3CCC(CN4CC(Oc5ncc(C(=O)N[C@H]6C(C)(C)[C@H](Oc7ccc(C#N)c(Cl)c7)C6(C)C)cn5)C4)CC3)cc2)c2c(sc(C)c2C)-n2c(C)nnc21 [Compound I-124]	500 to 1500 nM		
Cc1sc2c(c1C)C(c1ccc(OC3CC4(CCN(c5ncc(C(=O)N[C@H]6C(C)(C)[C@H](Oc7ccc(C#N)c(Cl)c7)C6(C)C)cn5)CC4)C3)cc1)=NC(Cc1ncco1)c1nnc(C)n1-2 (some centres unmarked) [Compound I-166]	< 500 nM		
Cc1sc2c(c1C)C(c1ccc(CC3CC4(CCN(c5ncc(C(=O)N[C@H]6C(C)(C)[C@H](Oc7ccc(C#N)c(Cl)c7)C6(C)C)cn5)CC4)C3)cc1)=N[C@@H](C)c1nnc(C)n1-2 [Compound I-303]			1500 to 3000 nM
